According to the NIST ThermoML archive (doi:10.1016/j.tca.2008.10.017):

Tests used:
[1] = for molar entropy: 101.33 kPa, Small (less than 1 g) adiabatic calorimetry; for Triple point temperature: DTA
[2] = Molar enthalpy of transition or fusion; settings: DSC

CCCC[N+](CCCC)(CCCC)CCCC.[I-] [tetrabutylammonium iodide]
[1], Crystal 2
Settings	molar entropy [J/K/mol]
5 K	0.292
10 K	2.32
20 K	14.45
30 K	33.35
40 K	55.15
50 K	77.88
60 K	100.5
70 K	123
80 K	145
90 K	166.3
100 K	187
110 K	207.1
120 K	226.7
130 K	245.6
140 K	264
150 K	282
160 K	299.4
170 K	316.5
180 K	333.2
190 K	349.6
200 K	365.7
210 K	381.6
220 K	397.2
230 K	412.6
240 K	427.9
250 K	443.1
260 K	458.1
270 K	473.1
273.15 K	477.8
280 K	488
290 K	502.9
298.15 K	515
300 K	517.7
310 K	532.6
320 K	547.4
330 K	562.3
340 K	577.3
350 K	592.4

Settings	Molar enthalpy of transition or fusion, [2] [kJ/mol]	Triple point temperature, [1] [K]
Crystal 1	9	423.2
Crystal 2	27.8	398.7
